Data published in ChEMBL document CHEMBL1130465, “Peptidic prodrugs of novel aminomethyl-THF 1-methylcarbapenems” (1997).
Converted amounts (≈) assume the structure as drawn.

Columns and labels:
Type in all cases: functional
[1] = test system: Acinetobacter calcoaceticus; assay: In vitro antimicrobial activity against Acinetobacter calcoaceticus GC 756 strain; settings: Acinetobacter calcoaceticus; read-out: MIC
Citrobacter freundii = assay: In vitro antimicrobial activity against Citrobacter freundii GC 2211 strain; settings: Citrobacter freundii; read-out: MIC
Enterococcus faecium = assay: In vitro antimicrobial activity against Enterococcus faecium GC 1182 strain; settings: Enterococcus faecium; read-out: MIC
Enterococcus faecalis = assay: In vitro antimicrobial activity against Enterococcus faecalis GC 842 strain; settings: Enterococcus faecalis; read-out: MIC
Escherichia coli [2] = assay: In vitro antimicrobial activity against Escherichia coli ATCC 25922 strain
Escherichia coli [3] = assay: In vitro antimicrobial activity against Escherichia coli GC 1792 strain; settings: Escherichia coli; read-out: MIC
Escherichia coli [4] = assay: In vitro antimicrobial activity against Escherichia coli GC 2205 strain
Enterobacter cloacae = assay: In vitro antimicrobial activity against Enterobacter cloacae GC 2209 strain
Mus musculus [5] = assay: Tested for oral activity against Escherichia coli #311 infection in mice after single subcutaneous dose(SSC); 0.5-1
Mus musculus [6] = assay: Tested for oral activity against Staphylococcus aureus smith infection in mice after single subcutaneous dose(SSC); 0.12-0.25
Morganella morganii = assay: In vitro antimicrobial activity against Morganella morganii GC 2213 strain; settings: Morganella morganii; read-out: MIC
Pseudomonas aeruginosa [7] = assay: In vitro antimicrobial activity against Pseudomonas aeruginosa ATCC 27853 strain; settings: Pseudomonas aeruginosa, ATCC 27853; read-out: MIC
Pseudomonas aeruginosa [8] = assay: In vitro antimicrobial activity against Pseudomonas aeruginosa GC 1544 strain; settings: Pseudomonas aeruginosa; read-out: MIC
Staphylococcus aureus [9] = assay: In vitro antimicrobial activity against Staphylococcus aureus GC 2220 strain; settings: Staphylococcus aureus; read-out: MIC
Staphylococcus aureus [10] = assay: In vitro antimicrobial activity against Staphylococcus aureus ATCC 29213 strain
[11] = test system: Stenotrophomonas maltophilia; assay: In vitro antimicrobial activity against Xanthomonas maltophilia GC 562 strain
[12] = Ratio of ED50 of single oral dose to ED50 of single subcutaneous dose against Staphylococcus aureus smith infection in mice
Mus musculus [13] = assay: Tested for oral activity against Staphylococcus aureus smith infection in mice after single oral dose(SOD); 4-8
Mus musculus [14] = assay: Tested for oral activity against Staphylococcus aureus smith infection in mice after single oral dose(SOD); 0.83-1.7
Mus musculus [15] = assay: Tested for oral activity against Staphylococcus aureus smith infection in mice after single subcutaneous dose(SSC); 0.1-0.21
Mus musculus [16] = assay: Tested for oral activity against Staphylococcus aureus smith infection in mice after single subcutaneous dose(SSC); 0.06-0.21
Mus musculus [17] = assay: Tested for oral activity against Escherichia coli #311 infection in mice after single subcutaneous dose(SSC)
Mus musculus [18] = species on record: Mus musculus; assay: animal or person; settings: Mus musculus, po; read-out: ED50
Description: Tested for oral activity against Escherichia coli #311 infection in mice after single oral dose(SOD)

Mus musculus [19] = assay: Tested for oral activity against Staphylococcus aureus smith infection in mice after single oral dose(SOD); settings: Mus musculus, po; read-out: ED50
Mus musculus [20] = assay: Tested for oral activity against Staphylococcus aureus smith infection in mice after single subcutaneous dose(SSC); 0.42-0.83
[21] = Ratio of ED50 of single oral dose to ED50 of single subcutaneous dose against Staphylococcus aureus smith infection in mice; 16-8

| SMILES | MIC [1] [µg/mL] | MIC (Citrobacter freundii) [µg/mL] | MIC (Enterococcus faecium) [µg/mL] | MIC (Enterococcus faecalis) [µg/mL] | MIC (Escherichia coli [2]) [µg/mL] | MIC (Escherichia coli [3]) [µg/mL] | MIC (Escherichia coli [4]) [µg/mL] | MIC (Enterobacter cloacae) [µg/mL] | MIC (Morganella morganii) [µg/mL] | MIC (Pseudomonas aeruginosa [7]) [µg/mL] | MIC (Pseudomonas aeruginosa [8]) [µg/mL] | MIC (Staphylococcus aureus [9]) [µg/mL] | MIC (Staphylococcus aureus [10]) [µg/mL] | MIC [11] [µg/mL] | Ratio [12] | ED50 (Mus musculus [14]) [mg/kg] | other results |
| --- | --- | --- | --- | --- | --- | --- | --- | --- | --- | --- | --- | --- | --- | --- | --- | --- | --- |
| C[C@H]1C(S[C@H]2COC[C@H]2CN)=C(C(=O)O)N2C(=O)[C@H]([C@@H](C)O)C12 (stereo not given in full) | 2 (≈ 5.84 µM) | 0.25 (≈ 0.73 µM) | 128 (≈ 374 µM) | 2 (≈ 5.84 µM) | < 0.06 | < 0.06 | 0.12 (≈ 0.35 µM) | < 0.06 | 2 (≈ 5.84 µM) | 16 (≈ 46.7 µM) | 32 (≈ 93.5 µM) | 4 (≈ 11.7 µM) | < 0.06 | > 128 | 33 | – | ED50 (Mus musculus [5]): 0.5 mg/kg; ED50 (Mus musculus [6]): 0.12 mg/kg; ED50 (Mus musculus [13]): 4 mg/kg |
| C[C@@H](N)C(=O)NC[C@@H]1C[C@H](SC2=C(C(=O)O)N3C(=O)[C@H]([C@@H](C)O)C3[C@H]2C)CO1 (stereo not given in full) | 8 (≈ 19.3 µM) | 1 (≈ 2.42 µM) | > 128 | 4 (≈ 9.67 µM) | < 0.06 | 0.06 (≈ 0.145 µM) | 0.12 (≈ 0.29 µM) | 0.25 (≈ 0.605 µM) | 1 (≈ 2.42 µM) | 32 (≈ 77.4 µM) | 64 (≈ 155 µM) | 8 (≈ 19.3 µM) | < 0.06 | > 128 | 8.3 | 0.83 | ED50 (Mus musculus [15]): 0.1 mg/kg |
| C[C@@H](N)C(=O)NC[C@@H]1C[C@@H](SC2=C(C(=O)O)N3C(=O)[C@H]([C@@H](C)O)C3[C@H]2C)CO1 (stereo not given in full) | 8 (≈ 19.3 µM) | 0.5 (≈ 1.21 µM) | > 128 | 4 (≈ 9.67 µM) | < 0.06 | 0.12 (≈ 0.29 µM) | 0.12 (≈ 0.29 µM) | 0.12 (≈ 0.29 µM) | 1 (≈ 2.42 µM) | 32 (≈ 77.4 µM) | 64 (≈ 155 µM) | 4 (≈ 9.67 µM) | < 0.06 | > 128 | 14 | 0.83 | ED50 (Mus musculus [16]): 0.06 mg/kg |
| C[C@H]1C(S[C@@H]2CCO[C@@H]2CNC(=O)[C@@H](N)Cc2ccccc2)=C(C(=O)O)N2C(=O)[C@H]([C@@H](C)O)C12 (stereo not given in full) | 32 (≈ 65.4 µM) | 8 (≈ 16.3 µM) | 128 (≈ 261 µM) | 1 (≈ 2.04 µM) | 0.5 (≈ 1.02 µM) | 0.5 (≈ 1.02 µM) | 0.06 (≈ 0.123 µM) | 4 (≈ 8.17 µM) | 2 (≈ 4.09 µM) | 64 (≈ 131 µM) | 128 (≈ 261 µM) | 8 (≈ 16.3 µM) | 0.25 (≈ 0.511 µM) | > 128 | – | – | ED50 (Mus musculus [17]): 13 mg/kg; ED50 (Mus musculus [18]): 24 mg/kg |
| C[C@H](N)C(=O)NC[C@H]1OCC[C@H]1SC1=C(C(=O)O)N2C(=O)[C@H]([C@@H](C)O)C2[C@H]1C (stereo not given in full) | 8 (≈ 19.3 µM) | 1 (≈ 2.42 µM) | > 128 | 2 (≈ 4.84 µM) | < 0.06 | 0.12 (≈ 0.29 µM) | < 0.06 | 0.25 (≈ 0.605 µM) | 1 (≈ 2.42 µM) | 64 (≈ 155 µM) | 64 (≈ 155 µM) | 8 (≈ 19.3 µM) | < 0.06 | > 128 | – | – | ED50 (Mus musculus [19]): 6.6 mg/kg; ED50 (Mus musculus [20]): 0.42 mg/kg; Ratio [21]: >16 |
